The source of these data is patent US11572588B2, “Methods of evaluating treatment efficacy and/or treatment duration in mycobacterial diseases” (priority 2017, dated 2023).

Bounds are passed on as bounds.

The experiment deals with M. tuberculosis Erdman strain. The experiment is described as follows: highly lethal in vitro drug exposure of log-phase M. tuberculosis; killing and pre-rRNA/rRNA by RNAseq and ddPCR. The note with it: for pre-rRNA in M tuberculosis that survived exposure (FIG. 5, RNAseq reads): 48 h lethal exposure; for M. tuberculosis killed: 48 h of exposure, lethal dose, log phase culture; for 16S normalized counts, Transcripts per Million (TPM) / 23S normalized counts, Transcripts per Million (TPM) / ETS1 normalized counts, Transcripts per Million (TPM) / ITS1 normalized counts, Transcripts per Million (TPM) / ITS1/23S, Pre-RNA/23S (×10^4) / ETS1/23S, Pre-RNA/23S (×10^4): RNAseq; for ITS1/23S, Pre-RNA/23S (×10^4): control 466; for ETS1/23S, Pre-RNA/23S (×10^4): control 514; for effect on ETS1 and ITS1: relative to control. The class given is cell-based.

[1] abbreviates: lethal in vitro exposure, Day 2.
Where [2] appears, read: lethal in vitro exposure, Day 5.
[3] abbreviates: lethal in vitro exposure, Day 7.

`CO[C@H]1/C=C/O[C@@]2(C)Oc3c(C)c(O)c4c(O)c(c(/C=N/N5CCN(C)CC5)c(O)c4c3C2=O)NC(=O)/C(C)=C\C=C\[C@H](C)[C@H](O)[C@@H](C)[C@@H](O)[C@@H](C)[C@H](OC(C)=O)[C@@H]1C` [Rifampin, rifampin]: the “pre-rRNA in M tuberculosis that survived exposure (FIG. 5, RNAseq reads)” value (shortened to “pre-rRNA”) is “negligible pre-rRNA” and the M. tuberculosis killed stood at 99.99%. Further, under setting [1], the “16S normalized counts, Transcripts per Million (TPM)” value is 375,111 TPM; the “23S normalized counts, Transcripts per Million (TPM)” value is 624,759 TPM; the “ETS1 normalized counts, Transcripts per Million (TPM)” value came to 58 TPM; the “ITS1 normalized counts, Transcripts per Million (TPM)” value stood at 72 TPM. In addition, under setting [1], the “ITS1/23S, Pre-RNA/23S (×10^4)” value is reported as 1.15 ×10^4 and the “ETS1/23S, Pre-RNA/23S (×10^4)” value is listed as 0.92 ×10^4. In addition, under setting [2], the “16S normalized counts, Transcripts per Million (TPM)” value is reported as 306,538 TPM; the “23S normalized counts, Transcripts per Million (TPM)” value is given as 693,196 TPM; the “ETS1 normalized counts, Transcripts per Million (TPM)” value was 30 TPM; the “ITS1 normalized counts, Transcripts per Million (TPM)” value was determined as 235 TPM. For the same compound, under setting [2], the “ITS1/23S, Pre-RNA/23S (×10^4)” value was 3.39 ×10^4 and the “ETS1/23S, Pre-RNA/23S (×10^4)” value is given as 0.44 ×10^4. Also, for the setting “lethal in vitro exposure”, the “decrease of ETS1/23S relative to control” value is more than 100 fold; the “decrease of ITS1/23S relative to control” value is reported as more than 100 fold; the “effect on ETS1 and ITS1” value was “nearly complete abrogated ETS1 and ITS1”.
For `NNC(=O)c1ccncc1` [Isoniazid, isoniazid], the “pre-rRNA” value is reported as “abundant pre-rRNA” and the M. tuberculosis killed came out at 99.99%. Moreover, under setting [1], the “16S normalized counts, Transcripts per Million (TPM)” value was 423,197 TPM; the “23S normalized counts, Transcripts per Million (TPM)” value is 556,210 TPM; the “ETS1 normalized counts, Transcripts per Million (TPM)” value is on record as 12,092 TPM; the “ITS1 normalized counts, Transcripts per Million (TPM)” value is reported as 8,502 TPM. Moreover, under setting [1], the “ITS1/23S, Pre-RNA/23S (×10^4)” value was 153 ×10^4 and the “ETS1/23S, Pre-RNA/23S (×10^4)” value is recorded as 217 ×10^4. Further, under setting [3], the “16S normalized counts, Transcripts per Million (TPM)” value is listed as 451,670 TPM; the “23S normalized counts, Transcripts per Million (TPM)” value is reported as 519,579 TPM; the “ETS1 normalized counts, Transcripts per Million (TPM)” value is 16,987 TPM; the “ITS1 normalized counts, Transcripts per Million (TPM)” value was 11,763 TPM. In addition, under setting [3], the “ITS1/23S, Pre-RNA/23S (×10^4)” value was 226 ×10^4 and the “ETS1/23S, Pre-RNA/23S (×10^4)” value was 327 ×10^4. In addition, for the setting “lethal in vitro exposure”, the “decrease of ETS1/23S” value is listed as approximately 50% and the “decrease of ITS1/23S” value is listed as approximately 50%.
`COc1nc2ccc(Br)cc2cc1[C@@H](c1ccccc1)[C@@](O)(CCN(C)C)c1cccc2ccccc12` [Bedaquiline, bedaquiline]: the “pre-rRNA” value was “negligible pre-rRNA” and the M. tuberculosis killed is approximately 99.9%. For the same compound, under setting [1], the “16S normalized counts, Transcripts per Million (TPM)” value was 343,978 TPM; the “23S normalized counts, Transcripts per Million (TPM)” value is given as 654,924 TPM; the “ETS1 normalized counts, Transcripts per Million (TPM)” value was 548 TPM; the “ITS1 normalized counts, Transcripts per Million (TPM)” value was 551 TPM. Under setting [1], the “ITS1/23S, Pre-RNA/23S (×10^4)” value is listed as 8.4 ×10^4 and the “ETS1/23S, Pre-RNA/23S (×10^4)” value was 8.4 ×10^4. Besides, under setting [3], the “16S normalized counts, Transcripts per Million (TPM)” value is 208,644 TPM; the “23S normalized counts, Transcripts per Million (TPM)” value is given as 788,154 TPM; the “ETS1 normalized counts, Transcripts per Million (TPM)” value is 1,778 TPM; the “ITS1 normalized counts, Transcripts per Million (TPM)” value is 1,425 TPM. In addition, under setting [3], the “ITS1/23S, Pre-RNA/23S (×10^4)” value is 18.1 ×10^4 and the “ETS1/23S, Pre-RNA/23S (×10^4)” value is listed as 22.6 ×10^4. Besides, where the note is “lethal in vitro exposure”, the “decrease of ETS1/23S relative to control” value is more than 20 fold and the “decrease of ITS1/23S relative to control” value was more than 20 fold.
In the case of `[H]/N=C(/N)N[C@H]1[C@H](O)[C@@H](O)[C@H](O[C@@H]2O[C@@H](C)[C@](O)(C=O)[C@H]2O[C@@H]2O[C@@H](CO)[C@H](O)[C@@H](O)[C@@H]2NC)[C@@H](N/C(N)=N\[H])[C@@H]1O` [Streptomycin, streptomycin], the “pre-rRNA” value was “abundant pre-rRNA” and the M. tuberculosis killed is 99.99%. Besides, under setting [1], the “16S normalized counts, Transcripts per Million (TPM)” value is 453,930 TPM; the “23S normalized counts, Transcripts per Million (TPM)” value is recorded as 430,311 TPM; the “ETS1 normalized counts, Transcripts per Million (TPM)” value was 78,749 TPM; the “ITS1 normalized counts, Transcripts per Million (TPM)” value was 37,010 TPM. For the same compound, under setting [1], the “ITS1/23S, Pre-RNA/23S (×10^4)” value is listed as 860 ×10^4 and the “ETS1/23S, Pre-RNA/23S (×10^4)” value is listed as 1,830 ×10^4. Besides, under setting [2], the “16S normalized counts, Transcripts per Million (TPM)” value was 406,987 TPM; the “23S normalized counts, Transcripts per Million (TPM)” value is 488,000 TPM; the “ETS1 normalized counts, Transcripts per Million (TPM)” value is listed as 72,994 TPM; the “ITS1 normalized counts, Transcripts per Million (TPM)” value is reported as 32,019 TPM. In addition, under setting [2], the “ITS1/23S, Pre-RNA/23S (×10^4)” value was 656 ×10^4 and the “ETS1/23S, Pre-RNA/23S (×10^4)” value was 1,496 ×10^4. Further, the “effect on ETS1 and ITS1” value (lethal in vitro exposure) is “increased ETS1 and ITS1”.
